The values below come from PMC3360746, “CD36 Inhibitors Reduce Postprandial Hypertriglyceridemia and Protect against Diabetic Dyslipidemia and Atherosclerosis” (PLoS ONE, 2012).

The assay addresses T1, CD36 (Homo sapiens, UniProt P16671).
T1 construct: full length human CD36 stably expressed in HEK 293 cells
Kind of assay: inhibition of Cy3-ox-LDL binding to HEK-CD36 cells at […]°C; affinity cross-linking of ox-LDL to CD36. The class given is cell-based.

T1 sequence (P16671 2-472): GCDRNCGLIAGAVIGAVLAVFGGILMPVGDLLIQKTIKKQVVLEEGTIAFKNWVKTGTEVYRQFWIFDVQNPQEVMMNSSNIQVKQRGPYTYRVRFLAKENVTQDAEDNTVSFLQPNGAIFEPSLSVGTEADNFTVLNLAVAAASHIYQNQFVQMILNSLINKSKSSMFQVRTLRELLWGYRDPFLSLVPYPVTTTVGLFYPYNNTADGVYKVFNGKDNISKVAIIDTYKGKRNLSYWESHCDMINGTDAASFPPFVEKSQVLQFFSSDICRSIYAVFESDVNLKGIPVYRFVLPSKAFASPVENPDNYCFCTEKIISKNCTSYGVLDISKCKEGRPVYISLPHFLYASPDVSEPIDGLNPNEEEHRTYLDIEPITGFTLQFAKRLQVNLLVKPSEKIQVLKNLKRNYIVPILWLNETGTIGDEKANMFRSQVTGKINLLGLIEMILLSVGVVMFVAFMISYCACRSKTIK

One may read the IC50 as the concentration needed to halve the response being measured. Low readings indicate greater potency in that assay, high ones weaker potency in that assay. In turn, `COc1cc(O)c(/C=N/NC(=O)c2cc3ccccc3s2)c(OC)c1` [AP5055] gave an IC50 of 1000 ± 100 nM.

`COc1cc(O)c(/C=N/NC(=O)c2ccc3nccn3c2)c(OC)c1` [AP5258] yielded a half-inhibitory concentration (IC50) of 5000 ± 1000 nM.
